Data from US12685312B2, “Sulfonamide apyrase inhibitors” (Texas Crop Science, Inc., priority 2022, dated 2026).

Tested on: apyrase
Experiment: Screen for apyrase inhibitors (Method 1, in vitro phosphate-release absorbance assay)
Format: biochemical
Settings: inhibitor conc at 1 mM stock, 1 hr room temperature, absorbance 630 nm; rounded average of two assay results
Procedure, shortened: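 Phosphate-release colorimetric assay (Windsor method) in 60 mM Hepes, 3 mM MgCl2, 3 mM CaCl2, 3 mM ATP, pH 6.5, with compound or DMSO control added. Released phosphate developed with ammonium molybdate and ascorbic acid/TCA, then stopped with citrate/acetic acid.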

SMILES | % Inhibition of Apyrase [%]
O=C(Nc1ccc(OC(F)F)cc1)c1ccccc1NS(=O)(=O)c1ccc(F)cc1 [I-376, N-(4-(difluoromethoxy)phenyl)-2-((4-fluorophenyl)sulfonamido)benzamide] | 35
O=C(Nc1ccccc1)c1ccccc1NS(=O)(=O)c1cccc(C(F)(F)F)c1 [I-377, N-phenyl-2-((3-(trifluoromethyl)phenyl)sulfonamido) benzamide] | 20
O=C(Nc1ccc(F)cc1Cl)c1ccc(S(=O)(=O)Nc2ccc(SC(F)F)cc2)cc1 [I-380, N-(2-chloro-4-fluorophenyl)-4-(N-(4-((difluoromethyl)thio)phenyl)sulfamoyl) benzamide] | 73
CC1Cc2ccccc2N1C(=O)c1ccc(S(=O)(=O)Nc2ccccc2)cc1 (centres unmarked) [I-381, 4-(2-methylindoline-1-carbonyl)-N-phenylbenzenesulfonamide] | 72
COc1ccc([N+](=O)[O-])cc1NS(=O)(=O)c1ccc(C(=O)Nc2ccc(Cl)cc2)cc1 [I-382, N-(4-chlorophenyl)-4-(N-(2-methoxy-5-nitrophenyl)sulfamoyl)benzamide] | 69
O=C(Nc1ccccc1OC(F)F)c1ccc(S(=O)(=O)Nc2ccccc2F)cc1 [I-383, N-(2-(difluoromethoxy)phenyl)-4-(N-(2-fluorophenyl)sulfamoyl)benzamide] | 66
Cc1ccc(NS(=O)(=O)c2ccc(C(=O)Nc3cccc(C#N)c3)cc2)cc1C [I-384, N-(3-cyanophenyl)-4-(N-(3,4-dimethylphenyl)sulfamoyl)benzamide] | 66
O=C(Nc1ccc(Cl)c(S(=O)(=O)N2CCOCC2)c1)c1ccc(S(=O)(=O)Nc2cccc(C(F)(F)F)c2)cc1 [I-386, N-(4-chloro-3-(morpholinosulfonyl)phenyl)-4-(N-(3-(trifluoromethyl)phenyl)sulfamoyl)benzamide] | 65
O=C(Nc1ccc2[nH]nnc2c1)c1ccc(S(=O)(=O)Nc2ccc(Cl)cc2)cc1 [I-389, N-(1H-benzo[d][1,2,3]triazol-5-yl)-4-(N-(4-chlorophenyl)sulfamoyl)benzamide] | 63
Cc1ccc(NC(=O)c2ccc(S(=O)(=O)Nc3ccc(Cl)cc3)cc2)cc1S(=O)(=O)N(C)C [I-390, 4-(N-(4-chlorophenyl)sulfamoyl)-N-(3-(N,N-dimethylsulfamoyl)-4-methylphenyl)benzamide] | 62
Cc1ccc(NS(=O)(=O)c2ccc(C(=O)N3c4ccccc4CC3C)cc2)cc1 (centres unmarked) [I-391, 4-(2-methylindoline-1-carbonyl)-N-(p-tolyl)benzenesulfonamide] | 62
O=C(Nc1cccc(S(=O)(=O)N2CCOCC2)c1)c1ccc(S(=O)(=O)Nc2ccc(Cl)cc2)cc1 [I-393, 4-(N-(4-chlorophenyl)sulfamoyl)-N-(3-(morpholinosulfonyl)phenyl)benzamide] | 57
Cc1ccc(NS(=O)(=O)c2ccc(C(=O)Nc3ccccc3C)cc2)cc1 [I-394, N-(o-tolyl)-4-(N-(p-tolyl)sulfamoyl)benzamide] | 54
CCc1cccc(NC(=O)c2ccc(S(=O)(=O)Nc3ccc(Cl)cc3)cc2)c1 [I-395, 4-(N-(4-chlorophenyl)sulfamoyl)-N-(3-ethylphenyl)benzamide] | 51
Cc1ccc(NS(=O)(=O)c2ccc(C(=O)Nc3ccc(Cl)cc3C)cc2)cc1 [I-396, N-(4-chloro-2-methylphenyl)-4-(N-(p-tolyl)sulfamoyl)benzamide] | 50
O=C(c1ccc(S(=O)(=O)Nc2ccccc2)cc1)N1CCCc2ccccc21 [I-397, N-phenyl-4-(1,2,3,4-tetrahydroquinoline-1-carbonyl)benzenesulfonamide] | 45
CC(=O)c1cccc(NC(=O)c2ccc(S(=O)(=O)Nc3ccc(C)cc3)cc2)c1 [I-398, N-(3-acetylphenyl)-4-(N-(p-tolyl)sulfamoyl)benzamide] | 44
